According to patent publication US9636380B2 (priority 2013, dated 2017):

Tests used:
GABAA receptors = assay: Whole-cell recording of light-evoked IPSCs (LHb inputs) in DA cells projecting to NAc lateral shell, midbrain slices; type: cell-based, mice; settings: 50 μM bath perfusion; LHb input stimulation; n=3; p<0.0001
Description: (§1) Mice were deeply anaesthetized with pentobarbital (200 mg/kg ip; Ovation Pharmaceuticals, Deerfield, Ill.). Coronal midbrain slices (250 μm) were prepared after intracardial perfusion with ice-cold artificial cerebrospinal fluid (ACSF) containing elevated sucrose (in mM): 50 sucrose, 125 NaCl, 25 NaHCO3, 2.5 KCl, 1.25 NaH2PO4, 0.1 CaCl2, 4.9 MgCl2, and 2.5 glucose (oxygenated with 95% O2/5% CO2). After 90 min of recovery, slices were transferred to a recording chamber and perfused continuously at 2-4 ml/min with oxygenated ACSF (125 NaCl, 25 NaHCO3, 2.5 KCl, 1.25 NaH2PO4, 11 glucose, 1.3 MgCl2, and 2.5 CaCl2) at ˜30° C. […]
(§2) Labeled DA neurons were visualized with a 40× water-immersion objective on an upright fluorescent microscope (BX51WI, Olympus USA) equipped with infrared-differential interference contrast (IR-DIC) video microscopy and epifluorescence (Olympus USA) for detection of retrobeads. […] A dual lamp house adapter (Olympus USA) was used to switch between fluorescence lamp and LED light source. Excitatory postsynaptic currents (EPSCs) were recorded in whole-cell voltage clamp (Multiclamp 700B, Molecular Devices, CA, USA), filtered at 2 KHz, digitized at 10 KHz (ITC-18 interface, HEKA) and collected on-line using custom Igor Pro software (Wavemetrics, Lake Oswego, Oreg., USA). […]

AMPA receptor = assay: Whole-cell recording of light-evoked EPSCs (LDT inputs) in DA neurons projecting to NAc lateral shell, midbrain slices; type: cell-based, mice; settings: 10 μM bath perfusion; stimulation of LDT fibers; −70 mV
Description: as §1, §2

Compound	Effect on light-evoked IPSCs in DA cells projecting to NAc lateral shell (GABAA receptors)	Effect on light-evoked EPSCs in DA neurons projecting to NAc lateral shell (AMPA receptor)
picrotoxin	blocked	–
N#Cc1cc2[nH]c(=O)c(=O)[nH]c2cc1[N+](=O)[O-] [CNQX]	–	blocked
